Test results reported in paper PMC4081560 (PLoS ONE, 2014).

Key:
[1] = system: K/2785 virus (A/Korea/2785/2009); assay type: cell-based, 2009 pandemic H1N1 oseltamivir-resistant variant
[2] = biological target: K/2785 virus (A/Korea/2785/2009) neuraminidase (NA H275Y) (Influenza A virus, UniProt C5MQP8, H275Y); assay type: biochemical, 2009 pandemic H1N1 oseltamivir-resistant variant

| Structure (SMILES) | EC50 [1] | IC50 [2] | higher concentration needed compared with K/09 virus [2] |
| --- | --- | --- | --- |
| NC(=O)c1nc(F)cnc1O [Favipiravir, 6-fluoro-3-hydroxy-2-pyrazinecarboxamide] | 10.8 µM | – | – |
| CCC(CC)[C@H](NC(C)=O)[C@@H]1[C@H](O)[C@@H](C(=O)O)C[C@H]1N=C(N)N [Peramivir] | – | 0.0298 µM | more than 20 fold |
